Experimental data reported in patent US11814367B2, “Inhibitors of glycogen synthase 1 (GYS1) and methods of use thereof” (Maze Therapeutics, Inc., priority 2021, dated 2023).

Legend:
[1] = target: hGYS1 enzyme (recombinant hGYS1/GN1 protein) (Homo sapiens (Human), UniProt P13807); experiment: GYS1 coupled enzyme assay (PK/LDH); assay type: biochemical; settings: hGYS1/GN1 50 nM, UDP-Glucose 0.8 mM, G6P 1 mM; geometric mean of at least 2 runs
[2] = test system: hGYS1 enzyme / glycogen synthesis in HeLa cells; experiment: GYS1 cell based assay (glycogen synthesis, Glucose-glo); design: species or system human; settings: Homo sapiens, HeLa, 24 h, 24 h incubation, 20 mM glucose, geometric mean of at least 2 runs
Method in brief: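 HeLa cells starved 24 h in medium containing only 1× Glutamax were plated onto compound in medium with 20 mM glucose (1% DMSO final) for 24 h, 37 °C, 5% CO2. Acid lysates were Tris-quenched, glucoamylase-digested (pH 5.3, 1 h, 37 °C) and read by Glucose-glo luminescence. IC50 came from Hill fits, as geometric mean of ≥2 runs.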

[3] = target: hGYS2 enzyme (recombinant hGYS2/GN1 protein) (Homo sapiens (Human), UniProt P54840); experiment: GYS2 coupled enzyme assay (PK/LDH); assay type: biochemical; settings: geometric mean of at least 2 assay runs on separate days, read-out: Avg_IC50
Sequence of hGYS2 enzyme (recombinant hGYS2/GN1 protein) (P54840 whole entry): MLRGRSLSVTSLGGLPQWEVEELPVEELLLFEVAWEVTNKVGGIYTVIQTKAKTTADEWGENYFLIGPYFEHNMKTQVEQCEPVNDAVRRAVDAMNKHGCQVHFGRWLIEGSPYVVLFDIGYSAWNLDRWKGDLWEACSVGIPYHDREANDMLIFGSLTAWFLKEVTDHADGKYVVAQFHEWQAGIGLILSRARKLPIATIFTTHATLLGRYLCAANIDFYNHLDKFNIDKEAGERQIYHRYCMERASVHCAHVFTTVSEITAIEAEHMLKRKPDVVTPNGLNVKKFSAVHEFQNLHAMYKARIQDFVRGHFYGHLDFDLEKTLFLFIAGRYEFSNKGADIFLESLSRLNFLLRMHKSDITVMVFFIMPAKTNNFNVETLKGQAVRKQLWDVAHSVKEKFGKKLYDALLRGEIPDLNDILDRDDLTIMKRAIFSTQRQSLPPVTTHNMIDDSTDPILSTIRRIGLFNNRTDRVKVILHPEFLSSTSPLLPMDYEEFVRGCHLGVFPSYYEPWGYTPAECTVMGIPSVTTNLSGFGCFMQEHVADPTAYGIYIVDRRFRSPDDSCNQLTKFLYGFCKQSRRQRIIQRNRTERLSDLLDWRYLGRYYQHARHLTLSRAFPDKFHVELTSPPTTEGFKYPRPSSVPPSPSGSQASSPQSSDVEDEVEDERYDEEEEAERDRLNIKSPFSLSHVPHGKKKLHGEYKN
Sequence of hGYS2 enzyme (recombinant hGYS2/GN1 protein) (P46976 whole entry partner): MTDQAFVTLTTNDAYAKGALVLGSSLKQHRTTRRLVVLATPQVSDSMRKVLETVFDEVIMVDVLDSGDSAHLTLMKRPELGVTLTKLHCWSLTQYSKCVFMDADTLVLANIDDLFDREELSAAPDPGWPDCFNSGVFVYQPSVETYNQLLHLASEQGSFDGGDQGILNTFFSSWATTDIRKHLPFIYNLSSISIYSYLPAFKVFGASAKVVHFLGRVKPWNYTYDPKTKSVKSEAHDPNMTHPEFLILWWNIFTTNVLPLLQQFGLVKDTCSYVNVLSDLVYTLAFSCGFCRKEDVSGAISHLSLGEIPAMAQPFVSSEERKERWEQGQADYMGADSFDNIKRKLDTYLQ
Method in brief: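 hGYS2/GN1 200 nM; UDP-Glc 2 mM; glycogen 0.2%; G6P 2 mM; PEP 2 mM, NADH 0.6 mM, PK/LDH 20 U/mL. 50 mM Tris pH 7.5, MgCl2, KCl, BSA, TCEP, 2.5% DMSO. Kinetic A340, 10 min. IC50 = geomean of ≥2 runs.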

Sequence of hGYS1 enzyme (recombinant hGYS1/GN1 protein) (P13807 whole entry): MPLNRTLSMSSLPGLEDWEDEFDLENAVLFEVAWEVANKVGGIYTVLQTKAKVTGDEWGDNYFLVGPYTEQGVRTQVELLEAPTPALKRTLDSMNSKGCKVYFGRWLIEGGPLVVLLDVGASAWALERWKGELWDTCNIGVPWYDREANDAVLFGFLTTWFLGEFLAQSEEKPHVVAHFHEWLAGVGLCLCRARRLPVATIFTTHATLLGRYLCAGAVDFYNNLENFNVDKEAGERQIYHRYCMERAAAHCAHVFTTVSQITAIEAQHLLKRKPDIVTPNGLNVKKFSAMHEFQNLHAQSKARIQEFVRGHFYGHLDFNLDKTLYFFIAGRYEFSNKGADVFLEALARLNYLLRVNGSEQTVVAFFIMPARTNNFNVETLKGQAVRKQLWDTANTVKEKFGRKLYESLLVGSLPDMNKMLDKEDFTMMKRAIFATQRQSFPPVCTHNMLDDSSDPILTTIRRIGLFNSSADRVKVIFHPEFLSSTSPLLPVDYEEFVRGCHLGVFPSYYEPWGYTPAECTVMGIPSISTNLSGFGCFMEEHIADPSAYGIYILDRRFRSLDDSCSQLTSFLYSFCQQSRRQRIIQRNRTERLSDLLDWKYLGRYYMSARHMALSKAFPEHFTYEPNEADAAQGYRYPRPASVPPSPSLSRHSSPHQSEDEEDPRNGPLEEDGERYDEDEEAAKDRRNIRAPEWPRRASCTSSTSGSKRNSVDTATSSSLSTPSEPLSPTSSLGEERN
Sequence of hGYS1 enzyme (recombinant hGYS1/GN1 protein) (P46976 whole entry partner): as the sequence (P46976 whole entry partner) above

SMILES	IC50 [1]	IC50 [2]	IC50 [3]
Cn1nc(CC(=O)N2C[C@H](F)C[C@H]2C(=O)N[C@@H](c2ccccc2)c2ccc(C3(C)CC3)c(F)n2)c2ccccc21 [Compound 596, (2S,4R)-4-fluoro-N-[(S)-[6-fluoro-5-(1-methylcyclopropyl)pyridin-2-yl](phenyl)methyl]-1-[2-(1-methyl-1H-indazol-3-yl)acetyl]pyrrolidine-2-carboxamide]	20 nM	280 nM	> 96700 nM
Cc1nn(CC(=O)N2C[C@H](F)C[C@H]2C(=O)N[C@@H](c2ccccc2)c2ccc(C(C)C)cc2)c(=O)o1 [Compound 236, (2S,4R)-4-fluoro-1-[2-(5-methyl-2-oxo-2,3-dihydro-1,3,4-oxadiazol-3-yl)acetyl]-N-[(S)-phenyl[4-(propan-2-yl)phenyl]methyl]pyrrolidine-2-carboxamide]	58 nM	810 nM	> 100000 nM
O=C(N[C@@H](c1ccccc1)c1ccc(C2CC(F)(F)C2)c(F)n1)[C@@H]1C[C@@H](F)CN1C(=O)Cc1ncco1 [Compound 505, (2S,4R)-N-[(S)-[5-(3,3-difluorocyclobutyl)-6-fluoropyridin-2-yl](phenyl)methyl]-4-fluoro-1-[2-(1,3-oxazol-2-yl)acetyl]pyrrolidine-2-carboxamide]	20 nM	350 nM	> 100000 nM
CC(=O)N1C[C@H]2CCC[C@@H](C(=O)N3C[C@H](F)C[C@H]3C(=O)N[C@@H](c3ccccc3)c3ccc(C(C)C)cc3)[C@H]2C1 [Compound 183, (2S,4R)-1-[(3aS,4R,7aS)-2-acetyl-octahydro-1H-isoindole-4-carbonyl]-4-fluoro-N-[(S)-phenyl[4-(propan-2-yl)phenyl]methyl]pyrrolidine-2-carboxamide]	41 nM	930 nM	> 100000 nM
CC(C)c1cnc(C(NC(=O)[C@@H]2C[C@@H](F)CN2C(=O)Cc2cnn[nH]2)c2ccccc2)cc1F (single isomer, unassigned) [Compound 605, (2S,4R)-4-fluoro-N-[(S) or (R)-[4-fluoro-5-(propan-2-yl)pyridin-2-yl] (phenyl)methyl]-1-[2-(1H-1,2,3-triazol-5-yl)acetyl]pyrrolidine-2-carboxamide]	168 nM	2130 nM	> 100000 nM
CCn1cc(NCC(=O)N2C[C@H](F)C[C@H]2C(=O)N[C@@H](c2ccccc2)c2ccc(C3CC3)c(F)c2)nn1 [Compound 469, (2S,4R)-N-[(S)-(4-cyclopropyl-3-fluorophenyl)(phenyl)methyl]-1-{2-[(1-ethyl-1H-1,2,3-triazol-4-yl)amino]acetyl}-4-fluoropyrrolidine-2-carboxamide]	61 nM	1180 nM	> 100000 nM
O=C(N[C@@H](c1ccccc1)c1ccc(C2CC2)c(F)n1)[C@@H]1C[C@@H](F)CN1C(=O)Cc1ccc[nH]c1=O [Compound 731, (2S,4R)-N-[(S)-(5-cyclopropyl-6-fluoropyridin-2-yl)(phenyl)methyl]-4-fluoro-1-[2-(2-oxo-1,2-dihydropyridin-3-yl)acetyl]pyrrolidine-2-carboxamide]	66 nM	1620 nM	> 100000 nM
Cc1cnc(CC(=O)N2C[C@H](F)C[C@H]2C(=O)N[C@@H](c2ccccc2)c2ccc(C3CC(F)(F)C3)c(F)c2)o1 [Compound 550, (2S,4R)-N-[(S)-[4-(3,3-difluorocyclobutyl)-3-fluorophenyl](phenyl)methyl]-4-fluoro-1-[2-(5-methyl-1,3-oxazol-2-yl)acetyl]pyrrolidine-2-carboxamide]	42 nM	650 nM	> 100000 nM
CC(C)c1ccc([C@@H](NC(=O)[C@@H]2C[C@@H](F)CN2C(=O)Cc2ncco2)c2ccccc2)nc1 [Compound 270, (2S,4R)-4-fluoro-1-[2-(1,3-oxazol-2-yl)acetyl]-N-[(S)-phenyl[5-(propan-2-yl)pyridin-2-yl]methyl]pyrrolidine-2-carboxamide]	96 nM	1400 nM	> 100000 nM
CC(C)c1ccc([C@@H](NC(=O)[C@@H]2C[C@@H](F)CN2C(=O)Cc2nncn2C)c2ccccc2)cc1 (stereo in doubt) [Compound 227, (2RS,4R)-4-fluoro-1-[2-(4-methyl-4H-1,2,4-triazol-3-yl)acetyl]-N-[(S)-phenyl[4-(propan-2-yl)phenyl]methyl]pyrrolidine-2-carboxamide]	76 nM	1310 nM	> 100000 nM
CC(C)c1ccc([C@@H](NC(=O)[C@@H]2C[C@@H](F)CN2C(=O)Cn2nnnc2C(F)F)c2ccccc2)nc1 [Compound 254, (2S,4R)-1-{2-[5-(difluoromethyl)-1H-1,2,3-tetrazol-1-yl]acetyl}-4-fluoro-N-[(S)-phenyl[5-(propan-2-yl)pyridin-2-yl]methyl]pyrrolidine-2-carboxamide]	75 nM	1230 nM	> 100000 nM
O=C(N[C@@H](c1ccccc1)c1ccc(C2CC2)c(F)c1)[C@@H]1C[C@@H](F)CN1C(=O)CNc1cnccn1 [Compound 471, (2S,4R)-N-[(S)-(4-cyclopropyl-3-fluorophenyl)(phenyl)methyl]-4-fluoro-1-{2-[(pyrazin-2-yl)amino]acetyl}pyrrolidine-2-carboxamide]	29 nM	700 nM	> 100000 nM
CC1(c2ccc([C@@H](NC(=O)[C@@H]3C[C@@H](F)CN3C(=O)Cc3n[nH]c4ccccc34)c3ccccc3)nc2F)CC1 [Compound 588, (2S,4R)-4-fluoro-N-[(S)-[6-fluoro-5-(1-methylcyclopropyl)pyridin-2-yl] (phenyl)methyl]-1-[2-(1H-indazol-3-yl)acetyl]pyrrolidine-2-carboxamide]	36 nM	480 nM	> 100000 nM
CC(C)c1ccc([C@@H](NC(=O)[C@@H]2C[C@@H](F)CN2C(=O)Cn2ncc(N3CC(F)(F)C3)n2)c2ccccc2)nc1 [Compound 277, (2S,4R)-1-{2-[4-(3,3-difluoroazetidin-1-yl)-2H-1,2,3-triazol-2-yl]acetyl}-4-fluoro-N-[(S)-phenyl[5-(propan-2-yl)pyridin-2-yl]methyl]pyrrolidine-2-carboxamide]	31 nM	650 nM	> 100000 nM
CC(C)c1ccc([C@@H](NC(=O)[C@@H]2C[C@@H](F)CN2C(=O)Cc2cnn[nH]2)c2ccccc2)cc1F [Compound 326, (2S,4R)-4-fluoro-N-[(S)-[3-fluoro-4-(propan-2-yl)phenyl](phenyl)methyl]-1-[2-(1H-1,2,3-triazol-5-yl)acetyl]pyrrolidine-2-carboxamide]	20 nM	340 nM	> 100000 nM
CC(C)c1ccc([C@@H](NC(=O)[C@@H]2C[C@@H](F)CN2C(=O)CNC(=O)N2CCN(CC3CC3)CC2)c2ccccc2)nc1 [Compound 282, 4-(cyclopropylmethyl)-N-{2-[(2S,4R)-4-fluoro-2-{[(S)-phenyl[5-(propan-2-yl)pyridin-2-yl]methyl]carbamoyl}pyrrolidin-1-yl]-2-oxoethyl}piperazine-1-carboxamide]	49 nM	4180 nM	> 100000 nM
O=C(N[C@@H](c1ccccc1)c1ccc(C2CC2)c(F)n1)[C@@H]1[C@H]2C[C@H]2CN1C(=O)Cc1cnn[nH]1 [Compound 320, (1S,2S,5R)-N-[(S)-(5-cyclopropyl-6-fluoropyridin-2-yl)(phenyl)methyl]-3-[2-(1H-1,2,3-triazol-5-yl)acetyl]-3-azabicyclo[3.1.0]hexane-2-carboxamide]	197 nM	1590 nM	> 100000 nM
